Measurements from the supplement of paper PMC13380429.

What was measured:
Settings in all cases: 72 h
[1] = system: U2OS; assay: cell viability relative to DMSO; higher = less toxic
[2] = system: Caco-2; assay: as above
[3] = system: HepG2; assay: as above
[4] = system: Calu-3; assay: as above
[5] = system: Vero E6; assay: as above
[6] = system: U2OS; assay: drug sensitivity score (DSS) for viability; higher = more toxic; extreme values may be limits of the assay
[7] = system: Caco-2; assay: as above
[8] = system: HepG2; assay: as above
[9] = system: Calu-3; assay: as above
[10] = system: Vero E6; assay: as above
[11] = system: U2OS; assay: relative viability EC50 (midpoint between 100% and the lowest measured viability); higher = less toxic
[12] = system: Caco-2; assay: as above
[13] = system: HepG2; assay: as above
[14] = system: Calu-3; assay: as above
[15] = system: Vero E6; assay: as above

Row | SMILES | cell viability ([1]; 1 nM) | cell viability ([1]; 10 nM) | cell viability ([1]; 100 nM) | cell viability ([1]; 1000 nM) | cell viability ([1]; 10000 nM) | cell viability ([2]; 1 nM) | cell viability ([2]; 10 nM) | cell viability ([2]; 100 nM) | cell viability ([2]; 1000 nM) | cell viability ([2]; 10000 nM) | cell viability ([3]; 1 nM) | cell viability ([3]; 10 nM) | cell viability ([3]; 100 nM) | cell viability ([3]; 1000 nM) | cell viability ([3]; 10000 nM) | cell viability ([4]; 1 nM) | cell viability ([4]; 10 nM) | cell viability ([4]; 100 nM) | cell viability ([4]; 1000 nM) | cell viability ([4]; 10000 nM) | cell viability ([5]; 1 nM) | cell viability ([5]; 10 nM) | cell viability ([5]; 100 nM) | cell viability ([5]; 1000 nM) | cell viability ([5]; 10000 nM) | drug sensitivity score [6] | drug sensitivity score [7] | drug sensitivity score [8] | drug sensitivity score [9] | drug sensitivity score [10] | relative viability EC50 [11] | relative viability EC50 [12] | relative viability EC50 [13] | relative viability EC50 [14] | relative viability EC50 [15]
1 | Cc1ccc(N2CCN(CC[C@H]3NC(=O)c4ccccc43)CC2)cc1C | 96.7% | 101% | 98.9% | 96.2% | 102% | 97.3% | 90.7% | 92.4% | 97% | 96.4% | 90.2% | 96.1% | 96.2% | 95.2% | 97.3% | 104% | 96.1% | 95.6% | 99.7% | 113% | 90.8% | 97.7% | 93.4% | 98.7% | 111% | 0 | 0 | 0 | 0 | 0 | > 10 µM | > 10 µM | > 10 µM | > 10 µM | > 10 µM
2 | CC(C)(C)c1ccc(S(=O)(=O)Nc2ccc(Cl)cc2C(=O)c2cc[n+]([O-])cc2)cc1 [vercirnon] | 97.7% | 97.5% | 97.1% | 104% | 104% | 89.6% | 97.4% | 87.4% | 110% | 100% | 93.4% | 93.7% | 104% | 106% | 89.4% | 95.4% | 99.9% | 99.7% | 93% | 96.3% | 98.2% | 97.4% | 94.7% | 95.6% | 106% | 0 | 0 | 0 | 0 | 0 | > 10 µM | > 10 µM | > 10 µM | > 10 µM | > 10 µM
3 | Nc1ncnc2c1ncn2[C@H]1O[C@@H](C(=O)N2CCN(CC(=O)Nc3cccc4c3CNC4=O)CC2)[C@H](O)[C@@H]1O [EB-47] | 99.4% | 107% | 102% | 100% | 96.7% | 97.8% | 103% | 104% | 94.8% | 92.6% | 102% | 96.3% | 103% | 102% | 93.9% | 92% | 102% | 91.3% | 104% | 85.7% | 102% | 98.6% | 94.7% | 92.4% | 97.6% | 0 | 0 | 0 | 0.1 | 0 | > 10 µM | > 10 µM | > 10 µM | > 10 µM | > 10 µM
4 | CC(=O)OCC1=C(C(=O)O)N2C(=O)[C@@H](NC(=O)Cc3cccs3)[C@H]2SC1 [cephalothin] | 104% | 98.4% | 94.1% | 99.4% | 104% | 110% | 103% | 102% | 98.5% | 119% | 87.9% | 102% | 86% | 86.8% | 86.3% | 117% | 94.2% | 104% | 103% | 106% | 100% | 97.6% | 93.6% | 88.7% | 110% | 0 | 0 | 0.8 | 0 | 0 | > 10 µM | > 10 µM | > 10 µM | > 10 µM | > 10 µM
5 | N#Cc1ncccn1 [2-cyanopyrimidine] | 100% | 104% | 96.7% | 99.6% | 97.9% | 98.5% | 93.7% | 101% | 99.3% | 102% | 102% | 100% | 93.7% | 93.6% | 111% | 102% | 99.3% | 101% | 91.6% | 96.9% | 93.8% | 104% | 97% | 106% | 94.6% | 0 | 0 | 0 | 0 | 0 | > 10 µM | > 10 µM | > 10 µM | > 10 µM | > 10 µM
6 | CCS(=O)(=O)CCn1c([N+](=O)[O-])cnc1C [tinidazole] | 96.3% | 94.8% | 97.1% | 92% | 98.3% | 104% | 77.8% | 99% | 108% | 93.1% | 94.1% | 109% | 85.5% | 118% | 86.8% | 95.2% | 96.6% | 98.4% | 98.2% | 99.9% | 100% | 102% | 91.7% | 97.6% | 106% | 0 | 0 | 0 | 0 | 0 | > 10 µM | > 10 µM | > 10 µM | > 10 µM | > 10 µM
7 | O=P(O)(NCCCl)NCCCl [palifosfamide] | 100% | 94% | 102% | 98.9% | 97.2% | 94.4% | 93.7% | 103% | 98.4% | 93.7% | 100% | 102% | 95.3% | 106% | 108% | 91.6% | 101% | 99.4% | 98.8% | 105% | 93.5% | 95.9% | 91.7% | 98.1% | 107% | 0 | 0 | 0 | 0 | 0 | > 10 µM | > 10 µM | > 10 µM | > 10 µM | > 10 µM
